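All cell lines were grown in 96-well plates and treated with compound for 48 hours. The concentration for full growth arrest is given as TGI.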 Where a SMILES comes first, the peptide text is derived from it. Residues, ends and D or L forms follow the SMILES beside them. [ ]: non-standard residue; d: D form. The star is where a group is joined. ξ: configuration not given here. *: point of attachment. ξF = NC(Cc1ccccc1)C(=O)O; Cbz = O=C(OCc1ccccc1)*; Boc = CC(C)(C)OC(=O)*; Aib = CC(C)(N)C(=O)O; OBn = c1ccc(CO*)cc1

Common to all, as to assay: growth of human tumour cells (NCI), 48 h
Experiment [1] has as its system SF-295 CNS.
Experiment [2] concerns SK-MEL-28 melanoma.
Experiment [3] has as its system OVCAR-5 ovarian.
Experiment [4] has as its system OVCAR-8 ovarian.
For experiment [5], the system named is KM12 colon.
For experiment [6], the system named is SF-539 CNS.
The test system of experiment [7] is MOLT-4 leukemia.
In experiment [8] the test system is RXF 393 renal.
Experiment [9] has as its system MDA-MB-435.
The subject of experiment [10] is DU-145 prostate.

As to `C[C@@H]1C2=CC[C@@]3(C)C(CCC3[C@H](C)[C@H]3C[C@@]4(C)O[C@@](c5cccnc5)(O3)OC4(C)C)[C@@H]2C2OC2[C@@]12CCC(=O)O2` (stereo not given in full), the TGI in experiment [1], in experiment [2], in experiment [3], in experiment [4], in [5] and in experiment [6] was > 100 µM in each case.
In the case of `Cc1cnc2c(c1)C(=O)C1=C(OC(C)(C)CC1O)C2=O` (stereo not given), the TGI in experiment [1] was 26.6 µM; in experiment [2], 31.1 µM; in experiment [7], 44.3 µM; in experiment [3], > 100 µM; in experiment [4], 35.6 µM; in experiment [5], > 100 µM. For the same compound, the results for the TGI in experiment [6] and in [8] were 31.4 µM and 29.3 µM, respectively.
Consider `CCCCOCc1cc(CN2CCN(C)CC2)c(O)c2ncccc12`, for which the TGI in experiment [1] was 33.5 µM; in experiment [2], > 100 µM; in experiment [7], 77.2 µM; in [3] it was 95.8 µM; in experiment [4], > 100 µM; in [5], > 100 µM. In addition, the TGI was 76.7 µM in experiment [6] and > 100 µM in [8].
On to `CN(C)CCn1c(=O)c2ccc3c4c(nn3CCN(C)C)c3cc([N+](=O)[O-])ccc3n(c1=O)c24`, for which the TGI in experiment [9] was 0.219 µM; in experiment [1] it was 1.05 µM; in [10] it was 1.2 µM; in experiment [2], 2.93 µM; in [3] it was 0.448 µM; in [4] it was 0.959 µM. For the same compound, the TGI in experiment [5] was 0.433 µM; in experiment [6], 2.83 µM; in [8], 0.434 µM.
In the case of `CCN(CC)c1ccc2cc(-c3nnc(-c4ccccc4O)o3)c(=O)oc2c1`, the TGI in [9] worked out at 32.7 µM; in experiment [1], 29.7 µM; in experiment [10], 23.6 µM; in experiment [2], 32.3 µM; in experiment [7], 25.9 µM; in experiment [3] it was 35 µM. The TGI in experiment [4] came to 11.9 µM; in experiment [5] it was 37.8 µM; in experiment [6], 22.4 µM.
In the case of `O=[N+]([O-])/C(C(Cl)=C(Cl)Cl)=C(\Nc1ccccc1)n1nnc2ccccc21`, the TGI was 86.5 µM in [9]; > 100 µM in experiment [1]; > 100 µM in experiment [2]; > 100 µM in [7]; > 100 µM in experiment [3]; > 100 µM in [4]. The results for the TGI in experiment [5] and in [6] were 48 µM and > 100 µM, respectively.
`N#Cc1nc(-c2ccccn2)oc1N`: the TGI in experiment [9], in experiment [1], in [10], in [2], in experiment [7] and in [3] was > 100 µM each time. The TGI in experiment [5] and in experiment [8] was > 100 µM in each case.
In the case of `COC(=O)[C@@H](Cc1ccccc1)N1O[C@]12CCCC[C@@H]2NC(=O)OC(C)(C)C` (stereo not given in full), the TGI in experiment [9] was 54.5 µM; in [1], > 100 µM; in [10], 79 µM; in experiment [2], 60.7 µM; in experiment [7], > 100 µM; in [3] it was 71.7 µM. Moreover, the results for the TGI in [5], in experiment [6] and in experiment [8] were > 100 µM, 33.3 µM and 56.1 µM, respectively.
Take `CCOC(=O)c1nc2ccccc2nc1Oc1cc(OC)c(OC)c(OC)c1`: the TGI in experiment [9], in experiment [1], in [10], in experiment [2], in experiment [7] and in experiment [3] was > 100 µM each time. Moreover, the TGI in experiment [4], in experiment [5] and in [6] was > 100 µM in each case.
Take `CC1(C)OCC([C@H]2CC23SCCCS3)O1` (stereo not given in full): the TGI in [1], in [2], in experiment [7], in experiment [3], in experiment [4] and in experiment [5] was > 100 µM each time. The TGI in experiment [6] and in experiment [8] was > 100 µM each time.
`COC(=O)c1c[nH]c2c1-c1cc(C(=O)OCc3ccccc3)n(S(=O)(=O)c3ccc(C)cc3)c1C(=O)C2=O`: the TGI is 0.135 µM in [9]; 0.312 µM in [1]; 0.287 µM in [10]; 0.244 µM in [2]; 2.9 µM in experiment [3]; 0.927 µM in [4]. Also, the values for the TGI in [5], in experiment [6] and in [8] were 0.89 µM, 0.471 µM and 1.14 µM, respectively.
As to `COC(=O)C(C)(C)NC(=O)C(Cc1ccccc1)NC(=O)C(C)(C)NC(=O)OCc1ccccc1` (stereo not given) (Cbz-[Aib]-[ξF]-[Aib]-OMe), the TGI in experiment [9], in [1], in [10], in [2], in experiment [7] and in experiment [3] was > 100 µM each time. In addition, the TGI in experiment [4] was > 100 µM.
Take `O=C(O)CNn1c(SCC(=O)O)nnc(/C=C/c2c(O)ccc3ccccc23)c1=O`: the TGI was > 100 µM in experiment [9]; > 100 µM in experiment [1]; > 100 µM in experiment [10]; > 100 µM in [2]; > 100 µM in [3]; 28.6 µM in [4]. The TGI in experiment [5] and in [6] was > 100 µM in each case.
Consider `Cc1cc(=O)[nH]c(NNC(C#N)c2c(O)ccc3ccccc23)n1` (stereo not given), for which the TGI in [1] was > 100 µM; in experiment [2], 68.3 µM; in [7] it was 48.6 µM; in experiment [3], 82.7 µM; in experiment [4], 68.2 µM; in experiment [5], 17.3 µM. Further, the TGI in experiment [6] worked out at 13.7 µM; in experiment [8], 23.6 µM.
Consider `CC1(S)CC2C(CC1Sc1ccccc1)C2(C)C` (stereo not given), for which the TGI in experiment [1], in experiment [2], in experiment [7], in experiment [3], in experiment [4] and in experiment [5] was > 100 µM throughout. Moreover, the TGI in experiment [6] was > 100 µM.
On to `CC(C)CC(NC(=O)OC(C)(C)C)C(=O)N1CCCC1C(=O)OCc1ccccc1` (stereo not drawn) (Boc-Leu-Pro-OBn; configuration not given here), for which the TGI in experiment [9], in [1], in experiment [10], in experiment [2], in experiment [3] and in [4] was > 100 µM each time. Moreover, the TGI in [5], in [6] and in [8] was > 100 µM throughout.

For the origin of these results see PubChem BioAssay (NCI).
